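Tested at 5 concentrations; 48 h exposure; 96-well plates; endpoints linearly interpolated, else capped at highest concentration. The concentration for 50% growth inhibition is given as GI50.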 The source made the active and inactive calls. No stated cut-off is given here; in the data, active = GI50 up to about 1.1 µM and inactive = higher.
Tests used:
Assay in all cases: NCI tumour cell line growth inhibition, 48 h
SK-OV-3 = system: SK-OV-3
MOLT-4 = system: MOLT-4
OVCAR-3 = system: OVCAR-3
T47D = system: T47D
HCC 2998 = system: HCC 2998
EKVX = system: EKVX
HL-60 = system: HL-60
NCI-H23 = system: NCI-H23
ACHN = system: ACHN
CAKI-1 = system: CAKI-1
OVCAR-5 = system: OVCAR-5
SNB-19 = system: SNB-19
MDA-N = system: MDA-N
MDA-MB-435 = system: MDA-MB-435
U-251 = system: U-251
HCT-15 = system: HCT-15
DU-145 = system: DU-145
SR = system: SR
DMS-114 = system: DMS-114

Row | SMILES | GI50 (SK-OV-3) | GI50 (MOLT-4) | GI50 (OVCAR-3) | GI50 (T47D) | GI50 (HCC 2998) | GI50 (EKVX) | GI50 (HL-60) | GI50 (NCI-H23) | GI50 (ACHN) | GI50 (CAKI-1) | GI50 (OVCAR-5) | GI50 (SNB-19) | GI50 (MDA-N) | GI50 (MDA-MB-435) | GI50 (U-251) | GI50 (HCT-15) [µM] | GI50 (DU-145) | GI50 (SR) | GI50 (DMS-114)
1 | COc1cccc(-c2nc(O)c3ccccc3n2)c1 | 19.7 µM (inactive) | 86.5 µM (inactive) | 21.2 µM (inactive) | 21.8 µM (inactive) | 22.3 µM (inactive) | 26.8 µM (inactive) | > 100 µM (inactive) | 26.7 µM (inactive) | 20.8 µM (inactive) | 16.4 µM (inactive) | 39.4 µM (inactive) | 19.8 µM (inactive) | 17.3 µM (inactive) | 14.9 µM (inactive) | 7.31 µM (inactive) | 18 | 29.1 µM (inactive) | > 100 µM (inactive) | 
2 | Cc1c(C)c2c(c(N)c1C#N)C(=O)N(Cc1ccc(S(N)(=O)=O)cc1)C2=O | 4.43 µM (inactive) | > 100 µM (inactive) | > 41.5 µM (inactive) | > 39.2 µM (inactive) | > 100 µM (inactive) | > 45 µM (inactive) | > 100 µM (inactive) | 18.9 µM (inactive) | > 42.6 µM (inactive) | > 100 µM (inactive) | 24.3 µM (inactive) | 5.51 µM (inactive) | > 100 µM (inactive) | > 100 µM (inactive) | 7.18 µM (inactive) | > 72.9 | 32.1 µM (inactive) | > 100 µM (inactive) | 
3 | COc1ccc2c(c1)C(N)=C(c1ccccc1)C2=O | 49 µM (inactive) | 58.5 µM (inactive) | > 100 µM (inactive) | 32.5 µM (inactive) | 81.8 µM (inactive) | > 100 µM (inactive) | > 100 µM (inactive) | 38.8 µM (inactive) | 33.9 µM (inactive) | > 100 µM (inactive) | > 100 µM (inactive) | 24.4 µM (inactive) | > 100 µM (inactive) | > 100 µM (inactive) | 94.4 µM (inactive) | > 100 | > 100 µM (inactive) | 8.75 µM (inactive) | 
4 | COc1cc(C(=O)OC2CC34CCNC35CC(OC5(OC)C2O)c2cc3c(cc24)OCO3)ccc1O (stereo not given) | > 100 µM (inactive) | > 100 µM (inactive) | > 100 µM (inactive) | > 100 µM (inactive) | > 100 µM (inactive) | > 100 µM (inactive) | > 100 µM (inactive) | > 100 µM (inactive) | > 100 µM (inactive) | > 100 µM (inactive) | > 100 µM (inactive) | > 100 µM (inactive) | > 100 µM (inactive) | > 100 µM (inactive) | > 100 µM (inactive) | > 100 | > 100 µM (inactive) | > 100 µM (inactive) | 
5 | Nc1nc(N)c2nc(CNc3ccc(C(=O)O)cc3)[nH]c2n1 | > 100 µM (inactive) | > 100 µM (inactive) | > 100 µM (inactive) | > 100 µM (inactive) | 27.9 µM (inactive) | > 100 µM (inactive) | > 100 µM (inactive) | > 100 µM (inactive) | > 100 µM (inactive) | > 100 µM (inactive) | > 100 µM (inactive) | > 100 µM (inactive) | > 100 µM (inactive) | > 100 µM (inactive) | > 100 µM (inactive) | > 100 | > 100 µM (inactive) | > 100 µM (inactive) | 
6 | N#Cc1c2c(c(Cl)n3c1nc1ccccc13)CCCC2 | 2.48 µM (inactive) | 3.89 µM (inactive) | 6.5 µM (inactive) |  | 16.4 µM (inactive) | 17.8 µM (inactive) | 1.66 µM (inactive) | 4.54 µM (inactive) | 3.56 µM (inactive) | 2.76 µM (inactive) | 18.4 µM (inactive) | 4.69 µM (inactive) |  |  | 3.65 µM (inactive) | 3.21 |  | 2.38 µM (inactive) | 1.86 µM (inactive)

Source: ChEMBL document CHEMBL1201862, “PubChem BioAssay data set” (2004)
